From the supplement of paper PMC11061612

Legend:
[1] = tested on: 769-P (Kidney Carcinoma); assay: combination Emax (second highest fraction inhibited in the dose matrix, 72 h); higher = more inhibition; extreme values may be limits of the assay
In short: (§1)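 After 24 hours at 37°C and 5% CO2 in 1536-well plates, cells in DMEM/F12 or RPMI plus 10% FBS received two-drug dose matrices for 72 hours. Viability came from CellTiter-Glo 2.0 luminescence and was scaled as inhibition, anchored at 0 by vehicle wells and at 1 by blank wells. Combination Emax is taken as the second-highest inhibition in the matrix, and Bliss excess as the observed combination effect less EA + EB − EA·EB, with EA and EB the single-agent effects.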

[2] = tested on: EW-7 (Ewing's Sarcoma); assay: as above
In short: as §1

[3] = tested on: SW620 (Colorectal Carcinoma); assay: as above
In short: as §1

[4] = tested on: LU-165 (Small Cell Lung Carcinoma); assay: as above
In short: as §1

[5] = tested on: SK-HEP-1 (Hepatocellular Carcinoma); assay: as above
In short: as §1

[6] = tested on: MDA-MB-436 (Breast Carcinoma); assay: as above
In short: as §1

[7] = tested on: A2780 (Ovarian Carcinoma); assay: as above
In short: as §1

[8] = tested on: KYSE-220 (Esophageal Squamous Cell Carcinoma); assay: as above
In short: as §1

[9] = tested on: HCC1395 (Breast Carcinoma); assay: as above
In short: as §1

[10] = tested on: NCI-H1703 (Squamous Cell Lung Carcinoma); assay: as above
In short: as §1

[11] = tested on: CGTH-W-1 (Thyroid Gland Carcinoma); assay: as above
In short: as §1

[12] = tested on: HCC70 (Breast Carcinoma); assay: as above
In short: as §1

[13] = tested on: NCI-H1651 (Lung Adenocarcinoma); assay: as above
In short: as §1

[14] = tested on: MHH-ES-1 (Ewing's Sarcoma); assay: as above
In short: as §1

[15] = tested on: NCI-H441 (Lung Adenocarcinoma); assay: as above
In short: as §1

[16] = tested on: JHU-022 (Oral Cavity Carcinoma); assay: as above
In short: as §1

[17] = tested on: SK-HEP-1 (Hepatocellular Carcinoma); assay: Bliss excess, mean over the matrix (fraction); higher = more synergy
In short: as §1

[18] = tested on: MDA-MB-436 (Breast Carcinoma); assay: as above
In short: as §1

[19] = tested on: A2780 (Ovarian Carcinoma); assay: as above
In short: as §1

[20] = tested on: PEO1 (Ovarian Carcinoma); assay: as above
In short: as §1
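Wherever Bliss excess, mean over the matrix is given: after 72 h of two-drug dosing.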

| Compound | combination Emax [1] | combination Emax [2] | combination Emax [3] | combination Emax [4] | combination Emax [5] | combination Emax [6] | combination Emax [7] | combination Emax [8] | combination Emax [9] | combination Emax [10] | combination Emax [11] | combination Emax [12] | combination Emax [13] | combination Emax [14] | combination Emax [15] | combination Emax [16] | Bliss excess [17] | Bliss excess [18] | Bliss excess [19] | Bliss excess [20] |
| --- | --- | --- | --- | --- | --- | --- | --- | --- | --- | --- | --- | --- | --- | --- | --- | --- | --- | --- | --- | --- |
| C[C@@H](c1ccc2nccn2c1)n1nnc2ncc(-c3cnn(C)c3)nc21 [Savolitinib] + CC1(C)CCC(CN2CCN(c3ccc(C(=O)NS(=O)(=O)c4ccc(NCC5CCOCC5)c([N+](=O)[O-])c4)c(Oc4cnc5[nH]ccc5c4)c3)CC2)=C(c2ccc(Cl)cc2)C1 [Venetoclax] (first compound max 1 µM, 7x7, partner max 1 µM) | 0.0824 | 0.118 | 0.124 | 0.221 | 0.164 | 0.28 | 0.14 | 0.146 | 0.247 | 0.139 | 0.0942 | 0.165 | 0.186 | 0.185 | 0.171 | 0.257 | -0.0267 | -0.0228 | -0.0843 | -0.0441 |
| CN(CCO)CC[C@H](CSc1ccccc1)Nc1ccc(S(=O)(=O)NC(=O)c2ccc(N3CCC([C@@H](O)c4ccccc4-c4ccc(Cl)cc4)CC3)cc2)cc1S(=O)(=O)C(F)(F)F [AZD4320] + Nc1ccn([C@@H]2O[C@H](CO)[C@@H](O)C2(F)F)c(=O)n1 [Gemcitabine] (first compound max 1 µM, 7x7, partner max 0.3 µM) | 0.903 | 1 | 0.871 | 0.828 | 0.936 | 0.531 | 0.893 | 0.674 | 0.211 | 0.915 | 0.887 | 0.507 | 0.543 | 0.964 | 0.765 | 0.787 | -0.108 | 0.0024 | -0.0321 | -0.0368 |
| CN(CCO)CC[C@H](CSc1ccccc1)Nc1ccc(S(=O)(=O)NC(=O)c2ccc(N3CCC([C@@H](O)c4ccccc4-c4ccc(Cl)cc4)CC3)cc2)cc1S(=O)(=O)C(F)(F)F [AZD4320] + Cc1cc2ncnn2cc1Nc1ncc2c(n1)n(C1CCOCC1)c(=O)n2C [AZD7648] (first compound max 1 µM, 7x7, partner max 10 µM) | 0.574 | 0.966 | 0.233 | 0.516 | 0.162 | 0.177 | 0.51 | 0.11 | 0.263 | 0.322 | 0.163 | 0.356 | 0.16 | 0.497 | 0.198 | 0.182 | -0.051 | -0.0488 | -0.0469 | -0.0389 |
| Cc1cc2ncnn2cc1Nc1ncc2c(n1)n(C1CCOCC1)c(=O)n2C [AZD7648] + CCN(CCO)CCCOc1ccc2c(Nc3cc(CC(=O)Nc4cccc(F)c4)[nH]n3)ncnc2c1 [AZD2811] (first compound max 10 µM, 7x7, partner max 1 µM) | 0.416 | 0.596 | 0.248 | 0.288 | 0.395 | 0.321 | 0.686 | 0.331 | 0.363 | 0.688 | 0.338 | 0.629 | 0.264 | 0.54 | 0.309 | 0.4 | 0.0517 | -0.0452 | 0.0122 | -0.0141 |
| CN(CCO)CC[C@H](CSc1ccccc1)Nc1ccc(S(=O)(=O)NC(=O)c2ccc(N3CCC([C@@H](O)c4ccccc4-c4ccc(Cl)cc4)CC3)cc2)cc1S(=O)(=O)C(F)(F)F [AZD4320] + C[C@@H](Nc1cc(F)cc(F)c1)c1cc(C(=O)N(C)C)cc2c(=O)cc(N3CCOCC3)oc12 [AZD8186] (first compound max 1 µM, 7x7, partner max 3 µM) | 0.341 | 0.947 | 0.84 | 0.717 | 0.778 | 0.459 | 0.543 | 0.35 | 0.476 | 0.531 | 0.476 | 0.781 | 0.411 | 0.946 | 0.573 | 0.446 | 0.0099 | 0.0429 | 0.0202 | -0.0468 |
| N#Cc1cnc(Nc2cc(NC[C@H]3CNCCO3)c(C(F)(F)F)cn2)cn1 [SRA737] + Nc1ccn([C@@H]2O[C@H](CO)[C@@H](O)C2(F)F)c(=O)n1 [Gemcitabine] (first compound max 10 µM, 7x7, partner max 0.3 µM) | 0.851 | 1 | 0.889 | 0.544 | 0.724 | 0.579 | 0.92 | 0.78 | 0.725 | 0.952 | 0.846 | 0.823 | 0.735 | 0.986 | 0.58 | 0.685 | -0.0002 | -0.0067 | 0.0099 | 0.113 |
| CN(CCO)CC[C@H](CSc1ccccc1)Nc1ccc(S(=O)(=O)NC(=O)c2ccc(N3CCC([C@@H](O)c4ccccc4-c4ccc(Cl)cc4)CC3)cc2)cc1S(=O)(=O)C(F)(F)F [AZD4320] + CC(=O)O[C@H]1C(=O)[C@@]2(C)[C@H]([C@H](OC(=O)c3ccccc3)[C@]3(O)C[C@H](OC(=O)[C@H](O)[C@@H](NC(=O)c4ccccc4)c4ccccc4)C(C)=C1C3(C)C)[C@]1(OC(C)=O)CO[C@@H]1C[C@@H]2O [Paclitaxel] (first compound max 1 µM, 7x7, partner max 3 µM) | 0.958 | 1 | 1 | 0.88 | 0.952 | 0.65 | 0.946 | 0.793 | 0.838 | 0.976 | 0.881 | 0.875 | 0.981 | 1 | 0.735 | 0.846 | 0.0236 | 0.0892 | -0.0362 | -0.0057 |
| Cc1cc2ncnn2cc1Nc1ncc2c(n1)n(C1CCOCC1)c(=O)n2C [AZD7648] + CN(C)CCCOc1ccc(-c2ccc3ncc4c(c3c2)n(C2CCOCC2)c(=O)n4C)cn1 [AZD0156] (first compound max 10 µM, 7x7, partner max 1 µM) | 0.264 | 0.682 | 0.229 | 0.346 | 0.23 | 0.289 | 0.609 | 0.27 | 0.366 | 0.521 | 0.228 | 0.3 | 0.194 | 0.269 | 0.324 | 0.3 | -0.0146 | -0.0147 | -0.0148 | -0.0136 |
| Cc1cc2ncnn2cc1Nc1ncc2c(n1)n(C1CCOCC1)c(=O)n2C [AZD7648] + O=C(c1cc(Cc2n[nH]c(=O)c3ccccc23)ccc1F)N1CCN(C(=O)C2CC2)CC1 [Olaparib] (first compound max 10 µM, 7x7, partner max 10 µM) | 0.232 | 0.536 | 0.159 | 0.143 | 0.242 | 0.195 | 0.576 | 0.149 | 0.4 | 0.417 | 0.122 | 0.178 | 0.263 | 0.801 | 0.163 | 0.172 | -0.0428 | -0.0522 | -0.0213 | -0.0374 |
| C[C@@H](c1ccc2nccn2c1)n1nnc2ncc(-c3cnn(C)c3)nc21 [Savolitinib] + Cc1c2c(nn1C)CSCc1cc(n(C)n1)CSc1cc(c3ccccc3c1)OCCCc1c(C(=O)O)n(C)c3c-2c(Cl)ccc13 [AZD5991] (first compound max 1 µM, 7x7, partner max 1 µM) | 0.158 | 0.133 | 0.167 | 0.213 | 0.237 | 0.18 | 0.499 | 0.164 | 0.478 | 0.852 | 0.173 | 0.844 | 0.183 | 0.38 | 0.221 | 0.132 | -0.0402 | -0.0243 | -0.074 | -0.0397 |
| C[C@@H](c1ccc2nccn2c1)n1nnc2ncc(-c3cnn(C)c3)nc21 [Savolitinib] + CN(CC[C@H](CSC1=CC=CC=C1)NC2=C(C=C(C=C2)S(=O)(=O)NC(=O)C3=CC=C(C=C3)N4CCC(CC4)[C@H](C5=CC=CC=C5C6=CC=C(C=C6)Cl)O)S(=O)(=O)C(F)(F)F)CCO [AZD4320] (first compound max 1 µM, 7x7, partner max 1 µM) |  |  | 0.207 |  |  |  |  |  |  |  |  |  |  | 0.404 |  |  |  |  |  |  |
| CC(=O)c1c(C)c2cnc(Nc3ccc(N4CCNCC4)cn3)nc2n(C2CCCC2)c1=O [Palbociclib] + CN(CC[C@H](CSC1=CC=CC=C1)NC2=C(C=C(C=C2)S(=O)(=O)NC(=O)C3=CC=C(C=C3)N4CCC(CC4)[C@H](C5=CC=CC=C5C6=CC=C(C=C6)Cl)O)S(=O)(=O)C(F)(F)F)CCO [AZD4320] (first compound max 10 µM, 7x7, partner max 1 µM) |  |  | 0.693 |  |  |  |  |  |  |  |  |  |  | 0.835 |  |  |  |  |  |  |
| COc1nnc2ccc(N3CCC(c4ccc(OCCN5CCN(C)C(=O)[C@H]5C)cc4)CC3)nn12 [AZD5153] + CN(CC[C@H](CSC1=CC=CC=C1)NC2=C(C=C(C=C2)S(=O)(=O)NC(=O)C3=CC=C(C=C3)N4CCC(CC4)[C@H](C5=CC=CC=C5C6=CC=C(C=C6)Cl)O)S(=O)(=O)C(F)(F)F)CCO [AZD4320] (first compound max 1 µM, 7x7, partner max 1 µM) |  |  | 0.84 |  |  |  |  |  |  |  |  |  |  | 0.74 |  |  |  |  |  |  |
